The values that follow come from patent US7087616B2, “Pyrazolyl pyrimidines” (Bayer CropScience AG, priority 2001, dated 2006).

The nature of one series: logP determination by HPLC (EEC Directive 79/831 Annex V.A8). The format is physicochemical. As to conditions: pH 2.3; HPLC reversed-phase column (C 18), 43° C.; read-out: log P(pH 2.3). The protocol:
The stated logp values were determined in accordance with EEC Directive 79/831 Annex V.A8 by HPLC (High Performance Liquid Chromatography) using a reversed-phase column (C 18). Temperature: 43° C.
Mobile phases for the determination in the acidic range: 0.1% aqueous phosphoric acid, acetonitrile; linear gradient from 10% acetonitrile to 90% acetonitrile.
Calibration was carried out using unbranched alkane-2-ones (having 3 to 16 carbon atoms) with known logp values (determination of the logp values by the retention times using linear interpolation between two successive alkanones).
For the compound `O=C(CSc1nccc(-n2cccn2)n1)OCC(F)(F)C(F)(F)C(F)(F)C(F)F` [Example 58], the chromatographic logP was 3.42. On the same count and under the same terms, as for `CN(CC(=O)OCC(F)(F)C(F)(F)F)c1nccc(-n2cccn2)n1` [Example 60], the figure is 3.2.

Still in this series, the particulars now being: reversed-phase HPLC column (C 18); pH 2.3; HPLC reversed-phase column (C 18), 43° C.
In the case of `CCOC(=O)CSc1nccc(Br)n1` [Ethyl [(4-bromo-2-pyrimidinyl)thio]acetate], the chromatographic logP came out at 2.27. `CCOC(=O)CSc1nccc(-n2cc(C)cn2)n1` [Example 1, ethyl {[4-(4-methyl-1H-pyrazol-1-yl)-2-pyrimidinyl]thio}acetate]: the chromatographic logP turned out to be 2.28. Same read-out and setting: as for `CCOC(=O)CSc1nccc(-n2nccc2[N+](=O)[O-])n1` [Example 2, ethyl {[4-(5-nitro-1H-pyrazol-1-yl)-2-pyrimidinyl]thio}acetate], the figure is 2.55; as for `CCOC(=O)CN(C)c1nccc(-n2cccn2)n1` [Example 3, ethyl N-methyl-N-[4-(1H-pyrazol-1-yl)-2-pyrimidinyl]glycinate], 2.1.

Still in this series, the particulars now being: reversed-phase HPLC column (C 18); pH 2.3; HPLC reversed-phase column (C 18), 43° C.; read-out: log P(pH 2.3).
`CCOC(=O)CSc1nccc(-n2cccn2)n1` [Example 5]: the chromatographic logP is 2.19. As for `COC(=O)CSc1nccc(-n2cc(Br)cn2)n1` [Example 7], the chromatographic logP was 2.69.

`CCOC(=O)CSc1nccc(-n2ccc(-c3ccc(Cl)cc3)n2)n1` [Example 8]: the chromatographic logP turned out to be 4.5.

On to `CCOC(=O)CSc1nccc(-n2ncc(SC(F)(F)F)c2C)n1` [Example 9], for which the chromatographic logP turned out to be 4.08. Still for that read-out and setting: the figure for `CCOC(=O)CSc1nccc(-n2cc([N+](=O)[O-])cn2)n1` [Example 12] is 2.56; for `CCOC(=O)CSc1nccc(-n2cc(C#N)cn2)n1` [Example 13] it is 2.32; for `CCOC(=O)CSc1nccc(-n2ccc(C)n2)n1` [Example 14] it is 2.51. The same measure, in the same setting: the figure for `CCOC(=O)CSc1nccc(-n2nc(C(F)(F)F)cc2C(F)(F)F)n1` [Example 15] is 4.03. As to `CCOC(=O)CSc1nccc(-n2nc(C)c(Cl)c2C)n1` [Example 16], the chromatographic logP came to 3.83.

Regarding `CCOC(=O)CSc1nccc(-n2nc(C#N)c3ccccc32)n1` [Example 17], the chromatographic logP came to 3.64. The same measure, in the same setting: the figure for `CCOC(=O)CSc1nccc(-n2ncc3c2CCCC3)n1` [Example 18] is 3.34; for `CCOC(=O)CSc1nccc(-n2cc(Cl)cn2)n1` [Example 19] it is 3.01; for `CCOC(=O)CSc1nccc(-n2cc(OC(C)C)cn2)n1` [Example 20] it is 3.15.

On to `CCOC(=O)CSc1nccc(-n2ncc3ccccc32)n1` [Example 22], for which the chromatographic logP was determined as 3.34.

Regarding `CCOC(=O)CSc1nccc(-n2cc3ccccc3n2)n1` [Example 23], the chromatographic logP came to 3.11.

As to `O=C(CSc1nccc(-n2cccn2)n1)OCCCl` [Example 33], the chromatographic logP stood at 2.3.

On to `CCOC(=O)CSc1nccc(-n2cc(Br)c(N)n2)n1` [Example 41], for which the chromatographic logP turned out to be 2.18. Consider `CCOC(=O)CN(CC)c1nccc(-n2cccn2)n1` [Example 46], for which the chromatographic logP amounted to 2.53. For the compound `CCOC(=O)CSc1nccc(-n2cc(C(=O)OCC)cn2)n1` [Example 47], the chromatographic logP worked out at 2.79. Turning to `CCOC(=O)CN(C)c1nccc(-n2cc(OC(C)C)cn2)n1` [Example 51], the chromatographic logP worked out at 2.89. Take `CCOC(=O)CSc1nccc(-n2cc(CC)cn2)n1` [Example 55]: the chromatographic logP is 2.99. On the same count and under the same terms, the figure for `COc1cnn(-c2ccnc(N(C)CC(=O)O)n2)c1` [Example 61] is 1.14. `CN(CC(=O)O)c1nccc(-n2cc(Br)cn2)n1` [Example 62]: the chromatographic logP is 1.91.

As for `CN(CC(=O)O)c1nccc(-n2cc(Cl)cn2)n1` [Example 63], the chromatographic logP turned out to be 1.82. Still for that read-out and setting: the figure for `CCOC(=O)CSc1nccc(-n2cc(C(F)(F)F)cn2)n1` [Example 64] is 3.27; for `CCOC(=O)CN(CC(C)C)c1nccc(-n2cccn2)n1` [Example 69] it is 3.57.
